PMC8750417, “Intracellular Amplifiers of Reactive Oxygen Species Affecting Mitochondria as Radiosensitizers” (Cancers, 2021)

Key:
A2780 cells [1] = test: Cell viability, MTT assay, A2780; format: cell-based, human
Protocol: Determination of viability of cells in the presence of prodrugs and controls A2780 and BL-2 cells The medium was removed, and the cells were washed two times with DPBS, trypsinated, and resuspended in RPMI 1640 medium (A2780) supplemented with 5% FBS (for 24 h and 48 h assay) or 10% FBS (for 96 h assay) , 1% L-glutamine, and 1% penicillin/streptomycin.
A2780 cells: This suspension was spread in the wells of a 96 -well microtiter plate (25000 cells for A2780 per well per 100 μL) and left standing at 37 °C in the chamber filled with CO2 (5%) for overnight. Stock solutions of prodrugs of different concentra tions (1 μL, solvent dmso, final concentrations in wells were 2, 5, 10, 30, 50 μM) were added to the wells and incubated for specific periods of time. Four experiments were conducted for each concentration of the prodrug. Finally, 3-(4,5-dimethylthiazol-2-yl)-2,5-diphenyltetrazolium bromide (MTT, 20 μL of the solution prepared by dissolving MTT (5 mg) in DPBS buffer (1 mL)) was added to each well, incubated for 3 h, treated with sodium dodecyl sulfate (SDS) solution (90 μL, 10% solution in 0.01 M aqueous HC l), and incubated overnight. Afterward, the intensity of the absorbance at 590 nm was measured.
MTT is converted in live cells to blue dye with the absorbance maximum λ max at 590 nm.
The absorbance at 690 nm was taken as a baseline value. The baseline corrected absorbance at 590 nm (A(590 nm) − A(690 nm)) was applied to calculate the relative number of viable cells. IC50 values were determined by fitting the experimental data expressing the number of viable cells (%, Y-axis) versus drug concentration (μM, X-axis) with a line curve and the X-axis value corresponding to 50% viability was considered as IC50 value according to the line curve (Figure S50, Table S2). […]

[2] = Prodrug-induced generation of ROS in cell free settings (DCFH/H2O2); conditions: for ROS Release Efficacy: relative acceleration of the rate of DCFH fluorescence increase with H2O2, pH 7.4, FeSO4 = 1.0
Source text: As previously reported, the NAAF-prodrugs react with ROS like H2O2, first leading to the cleavage of the B-C-bond with the formation of the phenol derivatives (product 2c-1, Figure S49, SI). The latter compounds exist in equilibrium with the corresponding phenolates. The phenolates undergo the spontaneous 1,6-elimination of para-quinone methide (QM) followed by the release of CO2 with the formation of the N-alkylaminoferrocene NAAF drugs (product 2c-2, Figure S46, SI). By using electrospray ionization mass spectrometry (ESI–MS), we confirmed for one representative prodrug 2c that it reacts with H2O2 in cell free settings according to this common mechanism (ESI-MS, Figures S46–S48, SI). The NAAF is further oxidized by H2O2 or molecular oxygen with the generation of drug NAAF^+ and highly toxic HO• or/and O2^•−. Finally, the NAAF^+ is reduced by glutathione (GSH), thereby closing the catalytic cycle, in which the NAAF acts as a catalyst. We evaluated the formation of HO• or/and O2^•− by using 2′,7′-dichlorodihydrofluorescein (DCFH) as a probe (Table 1, Figure S49, SI). This probe is oxidized to the fluorescent product 2′,7′-dichlorofluorescein (DCF) in the presence of HO• or/and O2^•−. […] The lower activity of 2c and 2d correlates with their higher lipophilicity and their correspondingly higher propensity to form aggregates in aqueous solution (Figure S45, SI).
Prodrug-induced generation of ROS in cell free settings
2',7'-Dichlorodihydrofluorescein diacetate (DCFH-DA, 4.9 mg) was dissolved in DMF (100 μL) and mixed with aqueous NaOH (0.1 M, 900 μL). The resulting mixture was incubated for 30 min at 22 °C in the dark to obtain a stock solution of 2',7'-dichlorodihydrofluorescein (DCFH, 10 mM). Next, DCFH (1 µL ) was added to the solution containing MOPS buf fer (100 mM, pH 7.4), N,N,N'N' -e thylenediaminetetraacetic acid (EDTA , 10 mM) and glutathione (GSH , 5 mM) (1 mL, final concentration of DCFH 10 μM). The reaction mixture was heated to 37 °C and H2O2 (1 µL, final concentration 10 mM) was added. The reaction was monitored by fluorescence spectroscopy: λex = 501 nm, λem = 523 nm. After around 5 min, prodrugs (1 mM in DMF, 10 μL) or positive control FeSO4 (1 mM in water, 10 μL) were added, and the fluorescence monitoring was continued until the fluorescence signal growth was stalled after approximately 100 to 300 min. A representative kinetics of ROS […]
The data are presented in Table 1 as relative acceleration of the rate of the fluorescence increase, where the rate of the fluorescence increase obtained in the presence of positive control FeSO4 was set […]
y = a time + b (a = (dF/dt) , min-1)
Figure S49. Increase of the fluorescence intensity (λex = 501 nm, λem = 523 nm) upon oxidation of DCFH by H2O2 in the presence of FeSO4. Experimental details are provided in the description above. The time point of the FeSO4 addition is indicated with a black […]
(also on this page, place not known: ° C µL) buffer N,N,N'N'-ethylenediaminetetraacetic (EDTA, (GSH, ° C FeSO 4 (λ ex λ em Fluorescence (a.u.) (dF/dt)0, min -1 Addition of)
(1 picture or pasted object on this page, not shown here)

[3] = Solubility in RPMI 1640 medium, precipitation seen by bright field optical microscopy; conditions: DMSO 1%; for Solubility: 48 h incubation in RPMI 1640, FBS 5%, first signs of precipitation; for first signs of precipitation: immediately after dilution in RPMI 1640, FBS 5%
Protocol: The latter medium was selected, since we used it for the cellular assays. […] Then we monitored the formation of (not detectable in the previous experiment) aggregated species in prodrug solutions that appeared transparent (concentrations < 50 µM) by using dynamic light scattering. […]
Solubility of drugs in aqueous buffers
Observing prodrug precipitation by using bright field optical microscopy […]
glutamine (1 %), and penicillin/streptomycin (1 %) was filled into 96-well microtiter plates (100 µL for each well) and compounds in DMSO stock solution (1 µL) were added. Each well was monitored by using bright field optical microscopy both immediately after […]

[4] = n-octanol/water partition coefficient (logP) by RP-TLC; format: physicochemical; conditions: for logP (Hydrolyzed Prodrug): n-octanol/water partition coefficient of the hydrolyzed boronic acid (_BA) form of the prodrug named; for logP (Prodrug): n-octanol/water partition coefficient of the intact prodrug (or control 2c_c), RP-TLC, MOPS pH 7.4
Protocol: Determination of n-octanol/water partition coefficients (LogP) […]
mixture of dichloromethane/CH3OH at proper concentrations. Commercially available […]
7.4) (6/4, v/v) was used. The solvent migration distance was around 4.5 cm. The plates […]
and its distance was manually measured. All measurements were done in at least triplicate and average values were used in further calculations. All experiments were performed at ambient temperature (22 ± 2 °C). […]

[5] = system: chronic lymphocytic leukemia (CLL) cells; test: Viability of primary CLL cells (CellTiter Glo); format: cell-based, human; conditions: viability of CLL vs MNC, 48 h; for 2c at 3.3 and 10 µM
Source text: Determination of viability of primary cancer (CLL) and normal (MNC) cells in the […]
Clinical samples from chronic lymphocytic leukemia (CLL) patients (N=6, CLL cells) and healthy donors (N=6; peripheral blood mononuclear cells, MNCs) were collected at the University Hospital Heidelberg, Germany. Informed consent was obtained in accordance with the Declaration of Helsinki. Sample collection and analysis was approved by the ethics committee of the University of Heidelberg (S-254/2016). Blood was separated by a Ficoll gradient (GE Healthcarey), and cells were cryopreserved. Drug sensitivity screening was performed in 384-well format (Greiner Bio One) with 10 different prodrug […]
4x10^4 cells per well. Cells were cultured in RPMI-1640 (Invitrogen) supplemented with penicillin/streptomycin (Invitrogen), L-glutamine (Invitrogen) and 10% pooled and heat inactivated AB-type human serum (Sigma-Aldrich). Cell viability was assessed by quantification of ATP (CellTiter Glo®, Promega) 48 hours after drug application.
Luminescence was measured on a Tecan Infinite F200 Microplate Reader. Viability was calculated as % of solvent (DMSO) treated control. Representative plots of cell viability

A2780 cells [6] = test: Mitochondrial ROS (MitoSOX, flow cytometry), A2780; format: cell-based, human
Protocol: Monitoring mitochondrial ROS (mROS)
A2780 cells were seeded in RPMI 1640 medium containing 5% FBS, 1% L-glutamine and 1% penicillin/streptomycin in a 96-well microtiter plate (total volume 0.1 mL) at a density of 250 cells/µL one day before the experiment. On the day of the experiment, the cells were washed with DPBS buffer and a fresh portion of RPMI 1640 medium containing 5% FBS, 1% L-glutamine and 1% penicillin/streptomycin (100 µL) was added followed by addition of compounds (1 μL of stock solutions in DMSO, final concentration of the prodrugs was 5, 10 μM and 30 μM) or carrier only (DMSO, 1 µL, final concentration 1 %, v/v) and incubation for 1 or 2 h in the dark chamber filled with CO 2 (5%) at 37 °C. After that, the cells were washed twice with DPBS buffer and the medium was replaced with HBSS (Hanks' Balanced Salt solution, 50 μL) containing MitoSOX (Red Mitochondrial Superoxide Indicator, Thermo-Fisher, Catalog number M36008, final concentration 5 µM obtained by adding 0.5 µ L of the 0.5 mM stock solution of MitoSOX in DMSO to the HBSS ) […]
(1 picture or pasted object on this page, not shown here) […]
and the cells were incubated in the dark chamber filled with CO2 (5%) at 37 °C for 20 min.
Next, the cells were detached from the culture dish using trypsin/EDTA (0.025%/0.01%, v/v, 50 µL). The cells were re-suspended in RPMI 1640 medium containing 5% FBS, 1% L-glutamine and 1% penicillin/streptomycin (100 µL). Finally, the fluorescence of live cells (λex = 488 nm, λem = 578 nm) in the suspensions was determined by using flow cytometry

Compound	IC50 (A2780 cells [1]; A2780, 24 h incubation)	IC50 (A2780 cells [1]; A2780, 48 h incubation)	IC50 (A2780 cells [1]; A2780, 96 h incubation)	ROS Release Efficacy [2]	Solubility [3]	first signs of precipitation [3]	logP (Hydrolyzed Prodrug) [4]	logP (Prodrug) [4]	cancer cell specificity, primary CLL cells vs MNCs [5]	cell viability at which the effect is saturated (A2780 cells [1]; A2780, 24 h)	cell viability at which the effect is saturated (A2780 cells [1]; A2780, 48 h)	cell viability at which the effect is saturated (A2780 cells [1]; A2780, 96 h)	ROS-generating activity, fold lower than that of 2a and 2b ([2]; cell free DCFH assay)	mitochondrial ROS (mROS) vs non-treated cells (A2780 cells [6])
CC1(C)OB(c2ccc(COC(=O)N(Cc3cn(CCc4ccccc4)nn3)[c-]3cccc3)cc2)OC1(C)C.[Fe+2].c1cc[cH-]c1 [2b]	24.7 ± 0.6 µM	18.5 ± 1.3 µM	12 ± 3 µM	0.76 ± 0.19	100 µM	50 µM	3.10 ± 0.12	5.37 ± 0.10	some specificity towards primary CLL cells	–	–	–	–	–
CC1(C)OB(c2ccc(COC(=O)N(Cc3cn(Cc4ccc(Cn5cc(CCc6ccccc6)nn5)cc4)nn3)[c-]3cccc3)cc2)OC1(C)C.[Fe+2].c1cc[cH-]c1 [2d]	> 30 µM	> 30 µM	8.3 ± 1.5 µM	0.37 ± 0.13	30 µM	30 µM	3.42 ± 0.14	5.56 ± 0.14	some specificity towards primary CLL cells	70%	50%	43%	~ 2 fold	–
CC1(C)OB(c2ccc(COC(=O)N[c-]3cccc3)cc2)OC1(C)C.[Fe+2].c1cc[cH-]c1 [5a]	–	–	–	–	–	–	–	–	–	–	–	–	–	substantially weaker
